Results published in patent US8758816B2, “Compositions comprising azelastine and methods of use thereof” (priority 2004, dated 2014).
Counter-ions that a name gives are not always drawn.

Test system: patients with seasonal allergic rhinitis (SAR)
Assay: MP 428 two-week randomized double-blind study: Total Nasal Symptom Score (TNSS), change from baseline
Type: in vivo, human
Parameters: key to Change from Baseline in AM TNSS, Mean / Change from Baseline in AM TNSS, LS Mean / Change from Baseline in AM TNSS, Median: TNSS sum of 4 symptoms each 0-3 (0=none, 3=severe); change from baseline
Procedure: A two-week, randomized, double-blind study, which evaluated the effects of the co-administration of ASTELIN® (azelastine hydrochloride (HCl)) and FLONASE® (fluticasone propionate) compared to either product alone in patients with seasonal allergic rhinitis (SAR) was conducted during the 2006 Texas mountain cedar season. After a 5-day placebo lead-in period, 151 patients with moderate-to-severe allergic rhinitis symptoms were randomized to either: (1) (49 total patients) ASTELIN® (azelastine hydrochloride (HCl)) plus placebo saline nasal spray 2 sprays per nostril, 15 minutes apart, twice daily (AM & PM); (2) (50 total patients) FLONASE® (fluticasone propionate) plus placebo saline nasal spray, 2 sprays per nostril, 15 minutes apart, once daily (AM) and two sessions of placebo saline nasal spray, 2 sprays per nostril, 15 minutes apart (PM); or (3) (52 total patients) the co-administration of ASTELIN® (azelastine hydrochloride (HCl)) 2 sprays per nostril plus FLONASE® (fluticasone propionate) 2 sprays per nostril (AM), 15 minutes apart, and ASTELIN® (azelastine hydrochloride (HCl)) 2 sprays per nostril plus placebo saline nasal spray, 15 minutes apart, (PM) for a 2-week double-blind treatment period.
The primary efficacy variable was the change from baseline in the Total Nasal Symptom Score (TNSS), which comprised sneezing, itchy nose, runny nose, and nasal congestion (individual symptoms scores were assigned a value between 0 and 3, where 0=no symptoms and 3=severe symptoms). This study was not statistically designed to assess the differences between ASTELIN® and FLONASE®.

[1] = Day 5, Intent-to-Treat Population
[2] = Day 6, Intent-to-Treat Population
[3] = Day 7, Intent-to-Treat Population
[4] = Day 8, Intent-to-Treat Population
[5] = Day 9, Intent-to-Treat Population

SMILES: CN1CCCC(n2nc(Cc3ccc(Cl)cc3)c3ccccc3c2=O)CC1 (racemic) [Azelastine, (±)-1-(2H)-phthalazinone, 4-[(4-chlorophenyl)methyl]-2-(hexahydro-1-methyl-1H-azepin-4-yl)-, mono-hydrochloride]
- Percent Change from Baseline in AM and PM Combined TNSS, Mean [1]: −23.15%
- Percent Change from Baseline in AM and PM Combined TNSS, Median [1]: −18.64%
- Percent Change from Baseline in PM TNSS, LS Mean [1]: −22.87%
- Percent Change from Baseline in PM TNSS, Mean [1]: −22.50%
- Percent Change from Baseline in PM TNSS, Median [1]: −13.04%
- Change from Baseline in AM and PM Combined TNSS, LS Mean (Day 5, Intent-to-Treat Population, ANCOVA model): −4.46
- Change from Baseline in AM and PM Combined TNSS, LS Mean (Day 5, Per-Protocol Population): −4.43
- Change from Baseline in AM and PM Combined TNSS, Mean (Day 5, Per-Protocol Population): −4.48
- Change from Baseline in AM and PM Combined TNSS, Median (Day 5, Per-Protocol Population): −3.67
- Percent Change from Baseline in AM and PM Combined TNSS, LS Mean (Day 5, Per-Protocol Population): −23.17%
- Percent Change from Baseline in AM and PM Combined TNSS, Mean (Day 5, Per-Protocol Population): −23.15%
- Percent Change from Baseline in AM and PM Combined TNSS, Median (Day 5, Per-Protocol Population): −18.64%
- Change from Baseline in AM TNSS, LS Mean [2]: −2.01
- Change from Baseline in AM TNSS, Mean [2]: −2.01
- Change from Baseline in AM TNSS, Median [2]: −2.00
- Change from Baseline in AM and PM Combined TNSS, Mean [2]: −4.44
- Change from Baseline in AM and PM Combined TNSS, Median [2]: −3.70
- Change from Baseline in PM TNSS, LS Mean [2]: −2.38
- Change from Baseline in PM TNSS, Mean [2]: −2.43
- Change from Baseline in PM TNSS, Median [2]: −2.00
- Percent Change from Baseline in AM TNSS, LS Mean [2]: −21.14%
- Percent Change from Baseline in AM TNSS, Mean [2]: −21.35%
- Percent Change from Baseline in AM TNSS, Median [2]: −16.67%
- Percent Change from Baseline in AM and PM Combined TNSS, LS Mean [2]: −23.15%
- Percent Change from Baseline in AM and PM Combined TNSS, Mean [2]: −23.13%
- Percent Change from Baseline in AM and PM Combined TNSS, Median [2]: −18.78%
- Percent Change from Baseline in PM TNSS, LS Mean [2]: −25.18%
- Percent Change from Baseline in PM TNSS, Mean [2]: −24.82%
- Percent Change from Baseline in PM TNSS, Median [2]: −20.45%
- Change from Baseline in AM and PM Combined TNSS, LS Mean (Day 6, Intent-to-Treat Population, ANCOVA model): −4.40
- Change from Baseline in AM and PM Combined TNSS, LS Mean (Day 6, Per-Protocol Population): −4.38
- Change from Baseline in AM and PM Combined TNSS, Mean (Day 6, Per-Protocol Population): −4.44
- Change from Baseline in AM and PM Combined TNSS, Median (Day 6, Per-Protocol Population): −3.70
- Percent Change from Baseline in AM and PM Combined TNSS, LS Mean (Day 6, Per-Protocol Population): −23.16%
- Percent Change from Baseline in AM and PM Combined TNSS, Mean (Day 6, Per-Protocol Population): −23.13%
- Percent Change from Baseline in AM and PM Combined TNSS, Median (Day 6, Per-Protocol Population): −18.78%
- Change from Baseline in AM TNSS, LS Mean [3]: −2.52
- Change from Baseline in AM TNSS, Mean [3]: −2.52
- Change from Baseline in AM TNSS, Median [3]: −2.20
- Change from Baseline in AM and PM Combined TNSS, Mean [3]: −5.09
- Change from Baseline in AM and PM Combined TNSS, Median [3]: −4.67
- Change from Baseline in PM TNSS, LS Mean [3]: −2.54
- Change from Baseline in PM TNSS, Mean [3]: −2.57
- Change from Baseline in PM TNSS, Median [3]: −2.25
- Percent Change from Baseline in AM TNSS, LS Mean [3]: −26.26%
- Percent Change from Baseline in AM TNSS, Mean [3]: −26.58%
- Percent Change from Baseline in AM TNSS, Median [3]: −25.00%
- Percent Change from Baseline in AM and PM Combined TNSS, LS Mean [3]: −26.40%
- Percent Change from Baseline in AM and PM Combined TNSS, Mean [3]: −26.52%
- Percent Change from Baseline in AM and PM Combined TNSS, Median [3]: −23.31%
- Percent Change from Baseline in PM TNSS, LS Mean [3]: −26.39%
- Percent Change from Baseline in PM TNSS, Mean [3]: −26.20%
- Percent Change from Baseline in PM TNSS, Median [3]: −23.81%
- Change from Baseline in AM and PM Combined TNSS, LS Mean (Day 7, Intent-to-Treat Population, ANCOVA model): −5.05
- Change from Baseline in AM and PM Combined TNSS, LS Mean (Day 7, Per-Protocol Population): −5.01
- Change from Baseline in AM and PM Combined TNSS, Mean (Day 7, Per-Protocol Population): −5.09
- Change from Baseline in AM and PM Combined TNSS, Median (Day 7, Per-Protocol Population): −4.67
- Percent Change from Baseline in AM and PM Combined TNSS, LS Mean (Day 7, Per-Protocol Population): −26.32%
- Percent Change from Baseline in AM and PM Combined TNSS, Mean (Day 7, Per-Protocol Population): −26.52%
- Percent Change from Baseline in AM and PM Combined TNSS, Median (Day 7, Per-Protocol Population): −23.31%
- Change from Baseline in AM TNSS, LS Mean [4]: −2.65
- Change from Baseline in AM TNSS, Mean [4]: −2.62
- Change from Baseline in AM TNSS, Median [4]: −2.50
- Change from Baseline in AM and PM Combined TNSS, Mean [4]: −5.38
- Change from Baseline in AM and PM Combined TNSS, Median [4]: −5.00
- Change from Baseline in PM TNSS, LS Mean [4]: −2.69
- Change from Baseline in PM TNSS, Mean [4]: −2.76
- Change from Baseline in PM TNSS, Median [4]: −2.75
- Percent Change from Baseline in AM TNSS, LS Mean [4]: −27.73%
- Percent Change from Baseline in AM TNSS, Mean [4]: −27.83%
- Percent Change from Baseline in AM TNSS, Median [4]: −25.00%
- Percent Change from Baseline in AM and PM Combined TNSS, LS Mean [4]: −28.22%
- Percent Change from Baseline in AM and PM Combined TNSS, Mean [4]: −28.13%
- Percent Change from Baseline in AM and PM Combined TNSS, Median [4]: −23.73%
- Percent Change from Baseline in PM TNSS, LS Mean [4]: −27.94%
- Percent Change from Baseline in PM TNSS, Mean [4]: −28.17%
- Percent Change from Baseline in PM TNSS, Median [4]: −27.27%
- Change from Baseline in AM and PM Combined TNSS, LS Mean (Day 8, Intent-to-Treat Population, ANCOVA model): −5.37
- Change from Baseline in AM and PM Combined TNSS, LS Mean (Day 8, Per-Protocol Population): −5.33
- Change from Baseline in AM and PM Combined TNSS, Mean (Day 8, Per-Protocol Population): −5.38
- Change from Baseline in AM and PM Combined TNSS, Median (Day 8, Per-Protocol Population): −5.00
- Percent Change from Baseline in AM and PM Combined TNSS, LS Mean (Day 8, Per-Protocol Population): −28.14%
- Percent Change from Baseline in AM and PM Combined TNSS, Mean (Day 8, Per-Protocol Population): −28.13%
- Percent Change from Baseline in AM and PM Combined TNSS, Median (Day 8, Per-Protocol Population): −23.73%
- Change from Baseline in AM TNSS, LS Mean [5]: −2.57
- Change from Baseline in AM TNSS, Mean [5]: −2.52
